Experimental data as given in patent US20140135359A1, “METHODS OF DESIGNING, PREPARING, AND USING NOVEL PROTONOPHORES” (priority 2012, published 2014).
“Also recorded” adds a separate entry of the source. Read-outs that look alike come from different tables or passages of the source.

Columns and labels:
[1] = tested on: isolated rat liver mitochondria; test: Uncoupling activity: increase in basal (state 4) oxygen consumption by oxygraphy; format: biochemical; conditions: for Measured Uncoupling (% uncoupling ± SEM @ 100 μM): Table 1A, relative to ADP-stimulated respiration = 100%; for slope of the linear portion of the concentration-to-activity relationship: logarithmic scales
[2] = tested on: isolated rat liver mitochondria; test: Residual functional capacity / inhibitory effect on ADP-stimulated (state 3) oxygen consumption; format: biochemical; conditions: for inhibition of ADP-stimulated oxygen consumption: screening at 100 μM
[3] = test conc. 25 μM, increase in basal (state 4) oxygen consumption as % of average ADP-stimulated (state 3) rate in vehicle-treated mitochondria
[4] = test conc. 100 μM, increase in basal (state 4) oxygen consumption as % of average ADP-stimulated (state 3) rate in vehicle-treated mitochondria
[5] = test conc. 25 μM, functional capacity (state 3 minus state 4 rate) as % of vehicle-treated mitochondria
[6] = test conc. 100 μM, functional capacity (state 3 minus state 4 rate) as % of vehicle-treated mitochondria
[7] = Suppl. Table 1, 100 μM, 2-3 mitochondrial preparations

Compound	Uncoupling (%) [1, 3] [%]	Uncoupling (%) [1, 4] [%]	Inhibitory effect (%) ([2]; test conc. 25 μM)	Residual capacity (%) [2, 5] [%]	Inhibitory effect (%) ([2]; test conc. 100 μM)	Residual capacity (%) [2, 6] [%]	Measured Uncoupling Activity (% uncoupling ± SEM @ 100 μM) [1, 7] [% uncoupling]	other results
Oc1cc(O)cc(/C=C/c2ccc(O)c(O)c2)c1 [piceatannol (trans)]	1 ± 1	5 ± 1	64	35 ± 7	89	6 ± 3	–	–
COc1cc(/C=C/C(=O)O)ccc1O [ferulic acid]	–	−1 ± 1	–	–	9	91 ± 9	−1 ± 1	–
Oc1cccc(O)c1O [pyrogallol]	–	1 ± 1	–	–	16	83 ± 17	1 ± 1	–
O=C(/C=C/c1ccc(O)c(O)c1)OCCc1ccccc1 [caffeic acid phenethyl ester]	56 ± 13	57 ± 35	5	39 ± 12	43	0 ± 0	–	–
CC(=O)c1ccc(O)cc1 [4-acetylphenol]	–	0 ± 0	–	–	13	87 ± 1	0 ± 0	uncoupling activity ([1]; 100 μM, result in words): lack of activity
Cc1ccc(C(C)C)cc1O [carvacrol]	–	7 ± 2	–	–	10	83 ± 2	7 ± 2	–
O=C(O)c1cc(O)c(O)c(O)c1 [gallic acid]	–	−2 ± 1	–	–	2	98 ± 1	−2 ± 1	–
Oc1cc(O)c2c(c1)OC(c1ccc(O)c(O)c1)C(O)C2 (single isomer, unassigned; (+)) [(+) catechin, catechin]	–	−2 ± 0	–	–	2	98 ± 5	−2 ± 0	–
epigallocatechin gallate [(−) epigallocatechin gallate]	–	0 ± 1	–	–	2	98 ± 2	0 ± 1	–
Cc1ccc(C(C)C)c(O)c1 [thymol]	–	6 ± 0	–	–	29	65 ± 5	6 ± 0	–
C(=Cc1ccccc1)c1ccccc1 [stilbene (trans)]	–	−1 ± 1	–	–	1	99 ± 3	–	–
O=C1c2ccccc2C(=O)c2ccccc21 [anthraquinone]	–	−1 ± 1	–	–	15	85 ± 21	−1 ± 1	uncoupling activity ([1]; 100 μM, result in words): inactive
O=c1cc(-c2ccc(O)cc2)oc2cc(O)cc(O)c12 [apigenin]	9 ± 1	19 ± 3	28	63 ± 9	44	37 ± 8	19 ± 3	–
O=c1ccoc2cc(O)ccc12 [7-hydroxychromone]	–	0 ± 0	–	–	14	86 ± 2	0 ± 0	uncoupling activity ([1]; 100 μM, result in words): no appreciable activity; also recorded: lack of activity
Cc1cc(O)c2c(c1)C(=O)c1cc(O)cc(O)c1C2=O [frangulic acid]	59 ± 16	78 ± 14	41	0 ± 0	22	0 ± 0	78 ± 14	Measured Uncoupling (% uncoupling ± SEM @ 100 μM) ([1]; 100 μM): 78 ± 14 % uncoupling; uncoupling potency compared with 2,4-dinitrophenol ([1]; dose-escalation): potency on the order of that of 2,4-dinitrophenol; maximal inducible uncoupling ([1]; dose-escalation, 100 μM or below): complete uncoupling
O=C(CCc1ccc(O)cc1)c1c(O)cc(O)cc1O [phloretin]	3 ± 1	15 ± 3	0	99 ± 12	44	41 ± 17	15 ± 3	–
O=C(O)c1ccccc1O [salicylic acid]	–	4 ± 0	–	–	6	90 ± 2	4 ± 0	–
COc1ccc(C2CC(=O)c3c(O)cc(O)cc3O2)cc1O (racemic) [(±) hesperetin, hesperetin]	1 ± 1	5 ± 1	8	91 ± 8	14	81 ± 2	5 ± 1	–
O=c1c(-c2ccc(O)cc2)coc2cc(O)ccc12 [daidzein]	3 ± 1	6 ± 1	19	78 ± 5	26	68 ± 4	6 ± 1	–
COc1cc(/C=C/C(=O)c2ccc(O)cc2O)ccc1O [homobutein]	6 ± 0	56 ± 5	15	79 ± 7	22	22 ± 3	56 ± 5	uncoupling activity ([1]; 50 μM in 0.1% DMSO (FIG. 19)): partial uncoupling; Measured Uncoupling (% uncoupling ± SEM @ 100 μM) ([1]; 100 μM): 56 ± 5 % uncoupling; inhibitory effect on oxidative phosphorylation ([2]; 50 μM (FIG. 19)): inhibition of ADP-stimulated consumption
Oc1ccccc1O [catechol]	–	0 ± 0	–	–	12	88 ± 1	0 ± 0	–
O=C(O)c1ccccc1 [benzoic acid]	–	–	–	–	–	–	–	Measured Uncoupling Activity (% uncoupling ± SEM @ 100 μM) [1]: 0 ± 1 % uncoupling; Uncoupling (%) [1]: 0 ± 1%; Inhibitory effect (%) [2]: 4%; Residual capacity (%) [2]: 96 ± 3%
O=c1c(O)c(-c2ccccc2)oc2cc(O)cc(O)c12 [galangin]	102 ± 3	95 ± 9	0	2 ± 2	5	0 ± 0	95 ± 9	uncoupling activity ([1]; 25 μM): complete uncoupling; Measured Uncoupling (% uncoupling ± SEM @ 100 μM) ([1]; 100 μM): 95 ± 9 % uncoupling; uncoupling potency compared with 2,4-dinitrophenol ([1]; dose-escalation): potency on the order of that of 2,4-dinitrophenol; slope of the linear portion of the concentration-to-activity relationship ([1]; dose-escalation): 1.39
O=C1C[C@@H](c2ccc(O)cc2)Oc2cc(O)cc(O)c21 (racemic) [(±) naringenin, naringenin]	–	4 ± 2	–	–	31	65 ± 7	4 ± 2	–
O=c1c(O)c(-c2ccccc2O)oc2cc(O)cc(O)c12 [datiscetin]	15 ± 2	33 ± 3	33	52 ± 9	67	0 ± 0	33 ± 3	uncoupling potency compared with 2,4-dinitrophenol ([1]; dose-escalation): potency on the order of that of 2,4-dinitrophenol; slope of the linear portion of the concentration-to-activity relationship ([1]; dose-escalation): 0.44; inhibition of ADP-stimulated oxygen consumption [2]: inhibitory activity
O=c1c(O)c(-c2ccc(O)c(O)c2)oc2cc(O)cc(O)c12 [quercetin]	4 ± 0	8 ± 1	36	60 ± 10	80	12 ± 5	8 ± 1	inhibition of ADP-stimulated oxygen consumption [2]: inhibitory activity
O=C(/C=C/c1ccccc1)c1ccc(O)cc1 [4′-hydroxychalcone]	13 ± 2	74 ± 14	7	80 ± 2	0	26 ± 19	74 ± 14	Measured Uncoupling (% uncoupling ± SEM @ 100 μM) ([1]; 100 μM): 74 ± 14 % uncoupling
O=c1cc(-c2ccccc2)oc2ccccc12 [flavone]	–	−1 ± 2	–	–	25	75 ± 13	−1 ± 2	uncoupling activity ([1]; 100 μM, result in words): inactive
Oc1cccc(O)c1 [resorcinol]	–	0 ± 0	–	–	9	91 ± 3	0 ± 0	–
O=c1cc(-c2ccc(O)cc2)oc2c(-c3c(O)cc(O)c4c(=O)cc(-c5ccc(O)cc5)oc34)c(O)cc(O)c12 [cupressuflavone]	–	−2 ± 0	–	–	5	95 ± 4	−2 ± 0	–
